Measurements published in PubChem BioAssay AID1845217 (Molecular Pharmacology Branch, DTP, NCI, 2023).

Test system: VA-ES-BJ tumor spheroid viability
Experiment: Anticancer human tumor VA-ES-BJ cell line growth inhibition;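 also: spheroids exposed to compounds for seven days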;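 as to viability, T/C: percent of DMSO vehicle control viability so 100% = untreated growth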
Conditions: spheroids with HUVEC and MSC; for IC50: curve of first compound; for viability, T/C: stronger effect = lower value; active = viability on the fitted dose curve at most 10% of control; inactive = the rest
How it was run: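 Complex spheroids of malignant cells with endothelial cells and mesenchymal stem cells; agents alone or combined, from near clinical Cmax (or 10 microM if unknown) down in half-log steps, 0.25% DMSO final.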

[1] = second compound 1 µM, first compound 0.0316 µM
[2] = second compound 1 µM, first compound 0.1 µM
[3] = second compound 1 µM, first compound 0.316 µM
[4] = second compound 1 µM, first compound 1 µM
[5] = second compound 1 µM, first compound 3.16 µM
[6] = second compound 1 µM, first compound 10 µM
[7] = second compound 3.16 µM, first compound 0.0316 µM
[8] = second compound 3.16 µM, first compound 0.1 µM
[9] = second compound 3.16 µM, first compound 0.316 µM
[10] = second compound 3.16 µM, first compound 1 µM
[11] = second compound 3.16 µM, first compound 3.16 µM
[12] = second compound 3.16 µM, first compound 10 µM
[13] = second compound 10 µM, first compound 0.0316 µM
[14] = second compound 10 µM, first compound 0.1 µM
[15] = second compound 10 µM, first compound 0.316 µM
[16] = second compound 10 µM, first compound 1 µM
[17] = second compound 10 µM, first compound 3.16 µM
[18] = second compound 10 µM, first compound 10 µM
[19] = second compound 31.6 µM, first compound 0.0316 µM
[20] = second compound 31.6 µM, first compound 0.1 µM
[21] = second compound 31.6 µM, first compound 0.316 µM
[22] = second compound 31.6 µM, first compound 1 µM
[23] = second compound 31.6 µM, first compound 3.16 µM
[24] = second compound 31.6 µM, first compound 10 µM
[25] = second compound 100 µM, first compound 0.0316 µM
[26] = second compound 100 µM, first compound 0.1 µM
[27] = second compound 100 µM, first compound 0.316 µM
[28] = second compound 100 µM, first compound 1 µM
[29] = second compound 100 µM, first compound 3.16 µM
[30] = second compound 100 µM, first compound 10 µM

CC(C)n1c(=O)n(C)c2cnc3cc(F)c(-c4ccc(OCCCN5CCCCC5)nc4)cc3c21 + Cn1nnc2c(C(N)=O)ncn2c1=O
inactive: viability, T/C [1] 93% | viability, T/C [2] 92.2% | viability, T/C [3] 93% | viability, T/C [4] 105% | viability, T/C [5] 110% | viability, T/C [6] 77.8% | viability, T/C [7] 94% | viability, T/C [8] 86.3% | viability, T/C [9] 93.3% | viability, T/C [10] 110% | viability, T/C [11] 111% | viability, T/C [12] 55.6% | viability, T/C [13] 92.2% | viability, T/C [14] 94.3% | viability, T/C [15] 88% | viability, T/C [16] 103% | viability, T/C [17] 111% | viability, T/C [18] 62.1% | viability, T/C [19] 80.6% | viability, T/C [20] 100% | viability, T/C [21] 103% | viability, T/C [22] 103% | viability, T/C [23] 113% | viability, T/C [24] 53.3% | viability, T/C [25] 103% | viability, T/C [26] 102% | viability, T/C [27] 106% | viability, T/C [28] 116% | viability, T/C [29] 109% | viability, T/C [30] 101%
> 10 µM: IC50 (second compound 1 µM) | IC50 (second compound 3.16 µM) | IC50 (second compound 10 µM) | IC50 (second compound 31.6 µM) | IC50 (second compound 100 µM)

COc1ccc([C@@H](O)c2cc(-c3ncnc4cc(N5CCOCC5)ccc34)c(F)cc2Cl)nn1 + Cn1nnc2c(C(N)=O)ncn2c1=O
0.623 µM: IC50 (second compound 31.6 µM)
0.574 µM: IC50 (second compound 3.16 µM)
0.547 µM: IC50 (second compound 100 µM)
inactive: viability, T/C [1] 94.9% | viability, T/C [2] 79.5% | viability, T/C [3] 56.8% | viability, T/C [4] 37.9% | viability, T/C [5] 15.8% | viability, T/C [7] 92.4% | viability, T/C [8] 89.6% | viability, T/C [9] 70% | viability, T/C [10] 31% | viability, T/C [11] 13.2% | viability, T/C [13] 92.5% | viability, T/C [14] 84.4% | viability, T/C [15] 63.5% | viability, T/C [16] 41.5% | viability, T/C [17] 11.4% | viability, T/C [19] 85.6% | viability, T/C [20] 83% | viability, T/C [21] 65.8% | viability, T/C [22] 38.8% | viability, T/C [23] 16.1% | viability, T/C [25] 96.2% | viability, T/C [26] 98.1% | viability, T/C [27] 61.5% | viability, T/C [28] 35% | viability, T/C [29] 13.9%
active: viability, T/C [6] 7.65% | viability, T/C [12] 7.49% | viability, T/C [18] 7.61% | viability, T/C [24] 7.46% | viability, T/C [30] 8.08%
0.477 µM: IC50 (second compound 1 µM)
0.602 µM: IC50 (second compound 10 µM)
